Test results: BigSolDB 2.1

C[C@@H]1CC[C@@]2(OC1)O[C@H]1C[C@H]3[C@@H]4CC=C5C[C@@H](O)CC[C@]5(C)[C@H]4CC[C@]3(C)[C@H]1[C@@H]2C
in n-pentanol
Settings	solubility (mole fraction)
293.2 K	0.00462
298.2 K	0.0051
303.2 K	0.00621
308.2 K	0.0075
313.2 K	0.00866
318.2 K	0.0102
323.2 K	0.0122
328.2 K	0.0148

C=C(C)[C@@H]1CC[C@]2(CO)CC[C@]3(C)[C@H](CC[C@@H]4[C@@]5(C)CC[C@H](O)C(C)(C)[C@@H]5CC[C@]43C)[C@@H]12
solubility (mole fraction)
Settings	in DMF	in NMP	in acetonitrile	in n-dodecane	in n-hexadecane	in n-nonanol	in n-octanol	in n-pentanol	in sec-butanol	in water
293.2 K	0.00208	0.00549	0.000269	1.5e-05	4.6e-05	0.00217	0.0016	0.000894	0.000701	4e-06
298.2 K	0.00244	0.00569	0.000473	1.6e-05	5.3e-05	0.00234	0.00162	0.00096	0.000728	5e-06
303.2 K	0.00294	0.0059	0.000697	1.9e-05	5.7e-05	0.00254	0.00179	0.00108	0.000813	6e-06
308.2 K	0.00334	0.00615	0.00104	2.3e-05	6.5e-05	0.00292	0.00186	0.0012	0.000845	9e-06
313.2 K	0.00368	0.00635	0.00137	2.5e-05	7.6e-05	0.00324	0.00209	0.00132	0.000941	1.4e-05
318.2 K	0.00426	0.00653	0.00193	3e-05	8.3e-05	0.00371	0.00229	0.00149	0.00108	1.8e-05
323.2 K	0.00461	0.00676	0.00244	3.5e-05	9.8e-05	0.00431	0.00269	0.00175	0.0012	2.5e-05
328.2 K	0.00518	0.00697	0.00341	4.5e-05	0.000117	0.0051	0.00341	0.00198	0.00148	3.3e-05
